# Source: patent publication US10711007B2, “Selective inhibitors of protein arginine methyltransferase 5 (PRMT5)” (Prelude Therapeutics, Incorporated, priority 2018, dated 2020)
# pIC50: −log10 of the molar value. Structures can show the parent of a compound that is named as a salt.
# Target: PRMT5/MEP50 complex (Homo sapiens (Human), UniProt O14744)
# Assay: Biochemical assay: PRMT5/MEP50 methylation of histone H4 based AcH4-23, SPA readout
# Details: PRMT5/MEP50 2.5 nM, 300 nM AcH4-23, 1 μM 3H-SAM
# Experimental: Biochemical Assay Protocol
# Compounds were solubilized and 3-fold diluted in 100% DMSO. […] Standard reactions were performed in a total volume of 30 μl in assay buffer, with 300 nM histone H4 based AcH4-23 (Anaspec: AS-65002) as substrate. To this was added the PRMT5/MEP50 complex diluted to provide a final assay concentration of 2.5 nM and the compounds were allowed to preincubate for 20 minutes at 37° C. The reaction was initiated by adding S-[3H-methyl]-adenosyl-L-methionine (PerkinElmer: NET155001MC) to final concentration of 1 μM. Following a 30 minutes incubation at 37° C., the reaction was stopped by adding 25 μL of 8M Guanidine HCl. Prepare streptavidin YSI SPA beads (Perkinelmer: RPNQ0012) at 0.3 mg/mL in assay buffer. To each reaction, add 150 μL of SPA beads suspension, and incubated while shaking at room temperature for 30 minutes. The plate was centrifuged at 100×g for 30 second before reading in a scintillation counter. IC50 values were determined by fitting the data to the standard 4 parameters with Hill Slope using GraphPad Prism software.
# Sequence of PRMT5/MEP50 complex (O14744 whole entry): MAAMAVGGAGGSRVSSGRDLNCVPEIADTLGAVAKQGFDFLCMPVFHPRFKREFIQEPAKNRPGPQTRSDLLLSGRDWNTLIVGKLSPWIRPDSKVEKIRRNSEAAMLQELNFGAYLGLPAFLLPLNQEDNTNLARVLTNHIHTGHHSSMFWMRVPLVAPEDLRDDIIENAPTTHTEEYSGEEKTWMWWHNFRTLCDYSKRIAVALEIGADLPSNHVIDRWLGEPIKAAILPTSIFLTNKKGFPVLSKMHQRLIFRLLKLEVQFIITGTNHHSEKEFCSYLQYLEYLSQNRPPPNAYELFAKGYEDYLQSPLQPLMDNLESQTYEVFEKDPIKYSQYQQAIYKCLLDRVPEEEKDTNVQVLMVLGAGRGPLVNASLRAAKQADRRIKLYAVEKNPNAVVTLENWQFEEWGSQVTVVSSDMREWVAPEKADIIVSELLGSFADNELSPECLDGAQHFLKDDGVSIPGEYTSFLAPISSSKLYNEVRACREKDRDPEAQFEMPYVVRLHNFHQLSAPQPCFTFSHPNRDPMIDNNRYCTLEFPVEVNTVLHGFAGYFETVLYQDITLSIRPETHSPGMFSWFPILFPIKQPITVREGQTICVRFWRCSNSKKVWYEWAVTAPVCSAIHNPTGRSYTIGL
# Sequence of PRMT5/MEP50 complex (Q9BQA1 whole entry partner): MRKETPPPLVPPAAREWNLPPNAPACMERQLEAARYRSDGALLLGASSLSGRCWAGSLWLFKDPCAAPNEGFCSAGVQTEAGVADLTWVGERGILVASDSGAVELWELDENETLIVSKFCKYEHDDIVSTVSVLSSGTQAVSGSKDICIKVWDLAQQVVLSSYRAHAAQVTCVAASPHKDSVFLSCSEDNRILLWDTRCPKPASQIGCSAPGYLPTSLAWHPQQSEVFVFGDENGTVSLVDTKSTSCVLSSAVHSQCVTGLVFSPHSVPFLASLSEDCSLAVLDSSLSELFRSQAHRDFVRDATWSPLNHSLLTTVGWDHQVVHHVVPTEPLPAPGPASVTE
row,Compound,pIC50
1,"Cc1ncnc2c1ccn2[C@@H]1O[C@H]([C@@H]2OC[C@@H](F)c3cc(Cl)ccc32)[C@@H](O)[C@H]1O [Example 92, (2S,3S,4R,5R)-2-((1R,4S)-6-chloro-4-fluoroisochroman-1-yl)-5-(4-methyl-7H-pyrrolo[2,3-d]pyrimidin-7-yl)tetrahydrofuran-3,4-diol]",7.70
2,"Cc1ncnc2c1ccn2[C@@H]1O[C@H]([C@@H]2OC[C@H](F)c3cc(Cl)ccc32)[C@@H](O)[C@H]1O [Example 94, (2R,3R,4S,5S)-2-(4-methylpyrrolo[2,3-d]pyrimidin-7-yl)-5-[(1R,4R)-6-chloro-4-fluoro-isochroman-1-yl]tetrahydrofuran-3,4-diol]",8.49
3,"Cc1ncnc2c1ccn2[C@@H]1O[C@H]([C@@H]2OCCc3c2ccc(F)c3F)[C@@H](O)[C@H]1O [Example 79, (2S,3S,4R,5R)-2-((R)-5,6-difluoroisochroman-1-yl)-5-(4-methyl-7H-pyrrolo[2,3-d]pyrimidin-7-yl)tetrahydrofuran-3,4-diol]",8.08
4,"Cc1ncnc2c1ccn2[C@@H]1O[C@H]([C@@H]2OCC(F)(F)c3ccccc32)[C@@H](O)[C@H]1O [Example 76, (2S,3S,4R,5R)-2-((R)-4,4-difluoroisochroman-1-yl)-5-(4-methyl-7H-pyrrolo[2,3-d]pyrimidin-7-yl)tetrahydrofuran-3,4-diol]",7.09
5,"Nc1ncnc2c1ccn2[C@@H]1O[C@H]([C@@H]2OCOCc3cc(Cl)ccc32)[C@@H](O)[C@H]1O [Example 81, (2R,3R,4S,5S)-2-(4-amino-7H-pyrrolo[2,3-d]pyrimidin-7-yl)-5-((R)-7-chloro-1,5-dihydrobenzo[e][1,3]dioxepin-1-yl)tetrahydrofuran-3,4-diol]",7.38
6,"Cc1ncnc2c1ccn2[C@@H]1O[C@H]([C@@H]2OCCCc3cc(Cl)ccc32)[C@@H](O)[C@H]1O [Example 101, (2S,3S,4R,5R)-2-((R)-7-chloro-1,3,4,5-tetrahydrobenzo[c]oxepin-1-yl)-5-(4-methyl-7H-pyrrolo[2,3-d]pyrimidin-7-yl)tetrahydrofuran-3,4-diol]",5.80
7,"Nc1ncnc2c1ccn2[C@@H]1O[C@H]([C@H]2OCCc3cc(Cl)sc32)[C@@H](O)[C@H]1O [Example 91, (2R,3R,4S,5S)-2-(4-amino-7H-pyrrolo[2,3-d]pyrimidin-7-yl)-5-((R)-2-chloro-4,7-dihydro-5H-thieno[2,3-c]pyran-7-yl)tetrahydrofuran-3,4-diol]",6.26
8,"Nc1ncnc2c1ccn2[C@@H]1O[C@H]([C@@H]2OCC(F)(F)c3ccccc32)[C@@H](O)[C@H]1O [Example 78, (2R,3R,4S,5S)-2-(4-amino-7H-pyrrolo[2,3-d]pyrimidin-7-yl)-5-((R)-4,4-difluoroisochroman-1-yl)tetrahydrofuran-3,4-diol]",8.17
9,"Nc1ncnc2c1ccn2[C@@H]1O[C@H]([C@@H]2OCCCc3cc(Cl)ccc32)[C@@H](O)[C@H]1O [Example 102, (2R,3R,4S,5S)-2-(4-amino-6H-7I4-pyrrolo[2,3-d]pyrimidin-7-yl)-5-((R)-7-chloro-1,3,4,5-tetrahydrobenzo[c]oxepin-1-yl)tetrahydrofuran-3,4-diol, hydrochloride]",5.20
10,"Nc1ncnc2c1ccn2[C@@H]1C[C@H]([C@H]2OC(=O)c3cc(Cl)ccc32)[C@@H](O)[C@H]1O [Example 3B, (R)-3-((1S,2R,3S,4R)-4-(4-amino-6H-7I4-pyrrolo[2,3-d]pyrimidin-7-yl)-2,3-dihydroxycyclopentyl)-6-chloroisobenzofuran-1(3H)-one, hydrochloride]",5.99
11,"Cc1cc2c(cc1Cl)CCO[C@H]2[C@H]1O[C@@H](n2ccc3c(C)ncnc32)[C@H](O)[C@@H]1O [Example 99, (2S,3S,4R,5R)-2-((R)-6-chloro-7-methylisochroman-1-yl)-5-(4-methyl-7H-pyrrolo[2,3-d]pyrimidin-7-yl)tetrahydrofuran-3,4-diol]",7.40

# The remaining lines, values ahead:
row,pIC50,Compound
1,9.00,"Cc1ncnc2c1ccn2[C@@H]1O[C@H]([C@@H]2OCc3ccc(Cl)cc32)[C@@H](O)[C@H]1O [Example 15, (2S,3S,4R,5R)-2-((R)-6-chloro-1,3-dihydroisobenzofuran-1-yl)-5-(4-methyl-7H-pyrrolo[2,3-d]pyrimidin-7-yl)tetrahydrofuran-3,4-diol]"
2,6.57,"Nc1ncnc2c1ccn2[C@@H]1O[C@H]([C@H]2OCc3cc(Cl)ccc32)[C@@H](O)[C@H]1O [Example 1B, (2R,3R,4S,5S)-2-(4-amino-7H-pyrrolo[2,3-d]pyrimidin-7-yl)-5-((S)-5-chloro-1,3-dihydroisobenzofuran-1-yl)tetrahydrofuran-3,4-diol]"
3,7.72,"Nc1ncnc2c1ccn2[C@@H]1O[C@H]([C@@H]2OC(O)Cc3cc(Cl)ccc32)[C@@H](O)[C@H]1O (stereo partly drawn) [Example 43, (2R,3R,4S,5S)-2-(4-amino-7H-pyrrolo[2,3-d]pyrimidin-7-yl)-5-((1R)-6-chloro-3-hydroxyisochroman-1-yl)tetrahydrofuran-3,4-diol]"
4,7.85,"Nc1ncnc2c1ccn2[C@@H]1O[C@H]([C@@H]2OC[C@@H](F)c3cc(Cl)ccc32)[C@@H](O)[C@H]1O [Example 93, (2R,3R,4S,5S)-2-(4-aminopyrrolo[2,3-d]pyrimidin-7-yl)-5-[(1R,4S)-6-chloro-4-fluoro-isochroman-1-yl]tetrahydrofuran-3,4-diol]"
5,7.23,"Cc1ncnc2c1ccn2[C@@H]1O[C@H]([C@@H]2OC(O)Cc3cc(Cl)ccc32)[C@@H](O)[C@H]1O (stereo partly drawn) [Example 50, (2S,3S,4R,5R)-2-((1R)-6-chloro-3-hydroxyisochroman-1-yl)-5-(4-methyl-7H-pyrrolo[2,3-d]pyrimidin-7-yl)tetrahydrofuran-3,4-diol]"
6,6.23,"Nc1ncnc2c1ccn2[C@@H]1O[C@H]([C@@H]2OC(=O)Cc3cc(Cl)ccc32)[C@@H](O)[C@H]1O [Example 82, (R)-1-((2S,3S,4R,5R)-5-(4-amino-7H-pyrrolo[2,3-d]pyrimidin-7-yl)-3,4-dihydroxytetrahydrofuran-2-yl)-6-chloroisochroman-3-one]"
7,6.00,"Cc1ncnc2c1ccn2[C@@H]1O[C@H]([C@H]2OCCc3cc(Cl)ccc32)[C@@H](O)[C@H]1O [Example 80, (2S,3S,4R,5R)-2-((S)-6-chloroisochroman-1-yl)-5-(4-methyl-7H-pyrrolo[2,3-d]pyrimidin-7-yl)tetrahydrofuran-3,4-diol]"
8,6.37,"COC1Cc2cc(Cl)ccc2[C@H]([C@H]2O[C@@H](n3ccc4c(N)ncnc43)[C@H](O)[C@@H]2O)O1 (stereo partly drawn) [Example 42, (2R,3R,4S,5S)-2-(4-amino-7H-pyrrolo[2,3-d]pyrimidin-7-yl)-5-((1R)-6-chloro-3-methoxyisochroman-1-yl)tetrahydrofuran-3,4-diol]"
9,8.25,"Cc1cc2c(cc1Cl)CCO[C@H]2[C@H]1O[C@@H](n2ccc3c(N)ncnc32)[C@H](O)[C@@H]1O [Example 100, (2R,3R,4S,5S)-2-(4-amino-7H-pyrrolo[2,3-d]pyrimidin-7-yl)-5-((R)-6-chloro-7-methylisochroman-1-yl)tetrahydrofuran-3,4-diol]"
10,6.22,"COC1Cc2cc(Cl)ccc2[C@H]([C@H]2O[C@@H](n3ccc4c(C)ncnc43)[C@H](O)[C@@H]2O)O1 (stereo partly drawn) [Example 44, (2S,3S,4R,5R)-2-((1R)-6-chloro-3-methoxyisochroman-1-yl)-5-(4-methyl-7H-pyrrolo[2,3-d]pyrimidin-7-yl)tetrahydrofuran-3,4-diol]"
11,6.17,"Nc1ncnc2c1ccn2[C@@H]1C[C@H]([C@H]2OCc3cc(Cl)ccc32)[C@@H](O)[C@H]1O [Example 2A, (1R,2S,3R,5S)-3-(4-amino-7H-pyrrolo[2,3-d]pyrimidin-7-yl)-5-((R)-5-chloro-1,3-dihydroisobenzofuran-1-yl)cyclopentane-1,2-diol]"
12,8.55,"Nc1ncnc2c1ccn2[C@@H]1O[C@H]([C@@H]2OCCc3c2ccc(F)c3F)[C@@H](O)[C@H]1O [Example 77, (2R,3R,4S,5S)-2-(4-amino-7H-pyrrolo[2,3-d]pyrimidin-7-yl)-5-((R)-5,6-difluoroisochroman-1-yl)tetrahydrofuran-3,4-diol]"
